Results published in patent publication US12655116B2, “Substituted isophthalic acid diamides” (Bayer Aktiengesellschaft, priority 2020, dated 2026).

Assays:
[1] = test system: VIOTR; experiment: Pre-emergence herbicidal action against VIOTR; format: in vivo, Viola tricolor
In short: (§1)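 Pre-emergence soil-surface spray of formulated compound (WP or EC; 600 to 800 l/ha; 0.2% wetting agent) over seeds sown in sandy loam. After 3 weeks under greenhouse conditions, damage is estimated visually in percent against untreated plants.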

[2] = test system: AMARE; experiment: Post-emergence herbicidal action against AMARE; format: in vivo, Amaranthus retroflexus; details: 20 g/ha, visual assessment about 3 weeks after treatment, 100% = plants have died, 0% = like control plants
In short: (§2)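 Spray, one-leaf stage: WP or EC compound in water, 600–800 l/ha, 0.2% wetting agent. Plants held about 3 weeks in the greenhouse, then visually rated in percent of kill compared with untreated controls.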

[3] = test system: STEME; experiment: Post-emergence herbicidal action against STEME; format: in vivo, Stellaria media
In short: as §2

[4] = test system: DIGSA; experiment: Post-emergence herbicidal action against DIGSA; format: in vivo, Digitaria sanguinalis
In short: as §2

[5] = test system: STEME; experiment: Pre-emergence herbicidal action against STEME; format: in vivo, Stellaria media
In short: as §1

[6] = test system: MATIN; experiment: Post-emergence herbicidal action against MATIN; format: in vivo, Matricaria inodora; details: Tripleurospermum inodorum, 504 h, dosage 20 g/ha
In short: as §2

[7] = test system: VERPE; experiment: Post-emergence herbicidal action against VERPE; format: in vivo, Veronica persica; details: 20 g/ha
In short: as §2

[8] = test system: PHBPU; experiment: Post-emergence herbicidal action against PHBPU; format: in vivo, Pharbitis purpurea
In short: as §2

[9] = test system: POLCO; experiment: Pre-emergence herbicidal action against POLCO; format: in vivo, Polygonum convolvulus; details: Fallopia convolvulus, 504 h, dosage 80 g/ha
In short: as §1

[10] = test system: ALOMY; experiment: Post-emergence herbicidal action against ALOMY; format: in vivo, Alopecurus myosuroides; details: dosage 20 g/ha, visual assessment about 3 weeks after treatment vs untreated controls
In short: as §2

[11] = test system: ECHCG; experiment: Post-emergence herbicidal action against ECHCG; format: in vivo, Echinochloa crus-galli
In short: as §2

[12] = test system: MATIN; experiment: Pre-emergence herbicidal action against MATIN; format: in vivo, Matricaria inodora
In short: as §1

[13] = test system: ALOMY; experiment: Pre-emergence herbicidal action against ALOMY; format: in vivo, Alopecurus myosuroides; details: Alopecurus myosuroides, 504 h; 80 g/ha, pre-emergence, scored visually after 3 weeks vs untreated controls (100% = plants have died, 0% = like control plants)
In short: as §1

[14] = test system: LOLRI; experiment: Pre-emergence herbicidal action against LOLRI; format: in vivo, Lolium rigidum; details: Lolium rigidum, 504 h, 80 g/ha
In short: as §1

[15] = test system: SETVI; experiment: Pre-emergence herbicidal action against SETVI; format: in vivo, Setaria viridis
In short: as §1

[16] = test system: ABUTH; experiment: Post-emergence herbicidal action against ABUTH; format: in vivo, Abutilon theophrasti; details: visual assessment about 3 weeks after treatment vs untreated controls
In short: as §2

[17] = test system: AVEFA; experiment: Pre-emergence herbicidal action against AVEFA; format: in vivo, Avena fatua; details: 80 g/ha, pre-emergence
In short: as §1

[18] = test system: SETVI; experiment: Post-emergence herbicidal action against SETVI; format: in vivo, Setaria viridis; details: dosage 20 g/ha
In short: as §2

[19] = test system: VERPE; experiment: Pre-emergence herbicidal action against VERPE; format: in vivo, Veronica persica; details: Veronica persica, 504 h
In short: as §1

[20] = test system: DIGSA; experiment: Pre-emergence herbicidal action against DIGSA; format: in vivo, Digitaria sanguinalis
In short: as §1

[21] = test system: PHBPU; experiment: Pre-emergence herbicidal action against PHBPU; format: in vivo, Pharbitis purpurea; details: dosage 80 g/ha
In short: as §1

[22] = test system: ABUTH; experiment: Pre-emergence herbicidal action against ABUTH; format: in vivo, Abutilon theophrasti
In short: as §1

[23] = test system: VIOTR; experiment: Post-emergence herbicidal action against VIOTR; format: in vivo, Viola tricolor
In short: as §2

[24] = test system: AMARE; experiment: Pre-emergence herbicidal action against AMARE; format: in vivo, Amaranthus retroflexus
In short: as §1

[25] = test system: HORMU; experiment: Post-emergence herbicidal action against HORMU; format: in vivo, Hordeum murinum; details: dosage 20 g/ha
Experimental: Seeds of monocotyledonous and dicotyledonous weed and crop plants are laid out in sandy loam soil in wood-fiber pots, covered with soil and cultivated in a greenhouse under good growth conditions. 2 to 3 weeks after sowing, the test plants are treated at the one-leaf stage. The compounds of the invention, formulated in the form of wettable powders (WP) or as emulsion concentrates (EC), are then sprayed onto the green parts of the plants in the form of an aqueous suspension or emulsion at a water application rate equivalent to 600 to 800 l/ha, with addition of 0.2% wetting agent. After the test plants have been left to stand in the greenhouse under optimal growth conditions for about 3 weeks, the action of the preparations is assessed visually in comparison to untreated controls (herbicidal action in percent (%): 100% activity=the plants have died, 0% activity=like control plants). […] The tables below illustrate, in an illustrative manner, the post-emergence herbicidal action of the compounds of the invention, the herbicidal activity being stated in percent.

[26] = test system: ECHCG; experiment: Pre-emergence herbicidal action against ECHCG; format: in vivo, Echinochloa crus-galli
In short: as §1

[27] = 80 g/ha, scored visually after 3 weeks vs untreated controls (100% = plants have died, 0% = like control plants)

CNC(=O)c1c(C(F)(F)F)ccc(C(=O)Nc2nnnn2C)c1C [Example 1-25]
100%: pest or weed control at 80 g/ha ([1]; Viola tricolor, 504 h, dosage 80 g/ha) | pest or weed control at 20 g/ha ([2]; Amaranthus retroflexus, 504 h) | pest or weed control at 20 g/ha ([3]; Stellaria media, 504 h, 20 g/ha) | pest or weed control at 20 g/ha ([4]; Digitaria sanguinalis, 504 h, 20 g/ha) | pest or weed control at 20 g/ha [6] | pest or weed control at 20 g/ha ([10]; Alopecurus myosuroides, 504 h) | pest or weed control at 20 g/ha ([11]; Echinochloa crus-galli, 504 h, dosage 20 g/ha) | pest or weed control at 80 g/ha ([12]; Tripleurospermum inodorum, 504 h, dosage 80 g/ha) | pest or weed control at 80 g/ha ([15]; Setaria viridis, 504 h, dosage 80 g/ha) | pest or weed control at 5 g/ha ([16]; Abutilon theophrasti, 504 h, dosage 5 g/ha) | pest or weed control at 20 g/ha ([16]; Abutilon theophrasti, 504 h, dosage 20 g/ha) | pest or weed control at 80 g/ha ([19]; dosage 80 g/ha) | pest or weed control at 80 g/ha ([20]; Digitaria sanguinalis, 504 h, dosage 80 g/ha) | pest or weed control at 80 g/ha ([22]; Abutilon theophrasti, 504 h, 80 g/ha, scored visually after 3 weeks vs untreated controls (100% = plants have died, 0% = like control plants)) | pest or weed control at 5 g/ha ([23]; Viola tricolor, 504 h, 5 g/ha) | pest or weed control at 20 g/ha ([23]; Viola tricolor, 504 h, 20 g/ha) | pest or weed control at 20 g/ha ([24]; Amaranthus retroflexus, 504 h, 20 g/ha, scored visually after 3 weeks vs untreated controls, 100% = plants have died, 0% = like control plants) | pest or weed control at 80 g/ha ([24]; Amaranthus retroflexus, 504 h, 80 g/ha, scored visually after 3 weeks vs untreated controls, 100% = plants have died, 0% = like control plants) | pest or weed control at 20 g/ha ([25]; Hordeum murinum, 504 h) | pest or weed control at 80 g/ha ([26]; Echinochloa crus-galli, 504 h, 80 g/ha)
80%: pest or weed control at 20 g/ha ([1]; Viola tricolor, 504 h, dosage 20 g/ha) | pest or weed control at 5 g/ha ([3]; Stellaria media, 504 h, dosage 5 g/ha) | pest or weed control at 20 g/ha ([5]; Stellaria media, 504 h, dosage 20 g/ha) | pest or weed control at 20 g/ha ([7]; Veronica persica, 504 h) | pest or weed control at 20 g/ha ([8]; Ipomoea purpurea, 504 h, dosage 20 g/ha) | pest or weed control at 80 g/ha [9] | pest or weed control at 80 g/ha [14] | pest or weed control at 20 g/ha ([15]; Setaria viridis, 504 h, dosage 20 g/ha) | pest or weed control at 20 g/ha ([18]; Setaria viridis, 504 h) | pest or weed control at 20 g/ha ([19]; dosage 20 g/ha)
90%: pest or weed control at 5 g/ha ([4]; Digitaria sanguinalis, 504 h, 5 g/ha) | pest or weed control at 80 g/ha ([5]; Stellaria media, 504 h, dosage 80 g/ha) | pest or weed control at 20 g/ha ([12]; Tripleurospermum inodorum, 504 h, dosage 20 g/ha) | pest or weed control at 80 g/ha [13] | pest or weed control at 80 g/ha ([17]; Avena fatua, 504 h) | pest or weed control at 20 g/ha ([20]; Digitaria sanguinalis, 504 h, dosage 20 g/ha) | pest or weed control at 80 g/ha ([21]; Ipomoea purpurea, 504 h)

CCNC(=O)c1c(C(F)(F)F)ccc(C(=O)Nc2nnco2)c1SC [Example 5-59]
80%: Post-emergence action against VERPE in % [7] | Post-emergence action against PHBPU in % ([8]; dosage 5 g/ha) | Post-emergence action against ALOMY in % [10] | Post-emergence action against ECHCG in % ([11]; dosage 5 g/ha) | Pre-emergence action against MATIN in % ([12]; dosage 20 g/ha) | Pre-emergence action against AVEFA in % [17] | Pre-emergence action against PHBPU in % [21] | Post-emergence action against VIOTR in % ([23]; 20 g/ha) | Post-emergence action against HORMU in % [25] | Pre-emergence action against ECHCG in % ([26]; 20 g/ha)
100%: Pre-emergence action against VIOTR in % ([1]; dosage 20 g/ha) | Pre-emergence action against VIOTR in % ([1]; dosage 80 g/ha) | Post-emergence action against STEME in % ([3]; 20 g/ha) | Pre-emergence action against STEME in % ([5]; dosage 80 g/ha) | Pre-emergence action against SETVI in % ([15]; dosage 80 g/ha) | Pre-emergence action against DIGSA in % ([20]; dosage 20 g/ha) | Pre-emergence action against DIGSA in % ([20]; dosage 80 g/ha) | Pre-emergence action against ABUTH (herbicidal activity) [22, 27] | Pre-emergence action against ABUTH (herbicidal activity in percent) ([22]; dosage 20 g/ha, scored visually after 3 weeks vs untreated controls, 100% = plants have died, 0% = like control plants) | Pre-emergence action against AMARE in % ([24]; 20 g/ha, scored visually after 3 weeks vs untreated controls, 100% = plants have died, 0% = like control plants) | Pre-emergence action against AMARE in % [24, 27] | Pre-emergence action against ECHCG in % ([26]; 80 g/ha)
90%: Post-emergence action at 20 g/ha against AMARE in % [2] | Post-emergence action against STEME in % ([3]; dosage 5 g/ha) | Post-emergence action against DIGSA in % ([4]; 5 g/ha) | Post-emergence action against DIGSA ([4]; 20 g/ha) | Pre-emergence action against STEME in % ([5]; dosage 20 g/ha) | Post-emergence action against PHBPU in % ([8]; dosage 20 g/ha) | Post-emergence action against ECHCG in % ([11]; dosage 20 g/ha) | Pre-emergence action against MATIN in % ([12]; dosage 80 g/ha) | Post-emergence action against ABUTH in % ([16]; dosage 5 g/ha) | Post-emergence action against ABUTH in % ([16]; dosage 20 g/ha) | Post-emergence action against SETVI in % [18]
